According to patent US9334473B2, “Three dimensional cell culture compositions and methods of use” (priority 2012, dated 2016):

Test system: human neutrophils
Assay: Chemotaxis of neutrophils suspended inside G041 substrate in a gradient
Assay type: cell-based
Conditions: 45-minute video
From the text: For materials in the Examples 2-4, substrates were punched or cut into shapes, sterilized and used to setup gradients of one or more ingredients. In some tests, gradients were further applied to cells in culture. In other tests, suspension of uncultured cells was suspended inside the substrate to which a gradient was applied.
As shown in Example 9 (Brain Culture #5) cells survived without free (substrate-unbound) medium, if overlapped by another substrate with the embedded medium. Accordingly, molecule diffusion studies, and this included gradients formed in one or more substrates, were maintained for longer periods of time without significant gradient “dilution” (by otherwise present surrounding pool of medium) when applied to cells in culture (or to uncultured cells suspended inside the substrate) by way of a substrate overlap method. In short term studies in a humidified incubator, neutrophils were exposed to a gradient inside the substrate, and the substrate was not overlapped by another substrate, yet a significant fraction of cells taxed in a suitable gradient.

Interleukin 8: cytokine applied as a gradient to neutrophils
Chemotaxis in applied gradient: Chemotaxis of human neutrophils
